Measured values published in ChEMBL document CHEMBL5441456, “ASAP - SARS-CoV-2 nsp3 macrodomain dose response” (2024).
Where “and” joins values, the source holds several entries; their conditions need not be identical. Equal entries are not always repeated.

The molecules below were run against Replicase polyprotein 1ab (Severe acute respiratory syndrome coronavirus 2, UniProt P0DTD1) (assay: Functional biochemical assay to identify treatments for viral infectious disease that targets SARS-COV-2 nsp3 macrodomain, whereby the mechanism of action displaces an ADP-Ribose modified peptide from the binding site. Utilizing a time-resolved fluorescence method to measure binding by reading the emitted fluorescence intensity in two wavelengths.).
In the case of `Cc1c(C#N)cncc1-c1cc2c(N[C@@H](c3ccc4c(c3)OCCO4)C(C)C)ncnc2[nH]1`, the IC50 is reported as 19.2 µM and 16.3 µM. `O=C(Nc1cccc2c(C(=O)Nc3cc4c(cc3C(=O)O)OCCO4)c[nH]c12)NC1CC1` was tested, and the IC50 was > 99.5 µM. `c1ccc2c(c1)OCC[C@@H]2Nc1ncnc2[nH]ccc12` was tested, and the IC50 was > 99.5 µM. `Cn1cc([C@@H](Nc2ncnc3[nH]ccc23)C2CCC2)cn1` showed an IC50 of 15 µM. In the case of `COc1ncnc(N[C@H](c2ccc3c(c2)S(=O)(=O)CCC3)C(C)C)c1F`, the IC50 is reported as > 99.5 µM. In the case of `O=C(Nc1ccc(C(=O)Nc2c(C(=O)O)sc3cnccc23)cc1)NC1CC1`, the IC50 is reported as > 99.5 µM. In the case of `CC(C)[C@@H]1C[C@H](Nc2[nH]cnc3nccc2-3)CCO1`, the IC50 is reported as > 99.5 µM. In the case of `CC(C)[C@@H](Nc1ncnc2[nH]c(C(=O)N[C@H]3[C@@H]4COC[C@@H]43)cc12)c1ccc2c(c1)OCCO2`, the IC50 is reported as 0.629 µM and 0.543 µM. `CCNC(=O)c1cc2c(N[C@H](c3ccnc(N)c3)C(C)C)ncnc2[nH]1` gave an IC50 of 1.79 µM. For `CC(C)n1nccc1S(=O)(=O)Nc1cnc2[nH]ccc2c1`, the IC50 was > 99.5 µM. In the case of `Cc1nnc(N[C@@H](c2ccc3c(c2)OCCO3)C(C)C)c2ccccc12`, the IC50 is reported as > 99.5 µM. With `CC(C)[C@@H](Nc1ncnc2[nH]ccc12)c1ccncc1` the IC50 was > 12.4 µM and 34 µM. In the case of `CC(C)[C@@H](Nc1ncnc2[nH]c(-c3cnn([C@@H](C)C(N)=O)c3)cc12)c1ccc2c(c1)OCCO2`, the IC50 is reported as 0.422 µM and 0.498 µM and 0.497 µM. With `CNc1nc(N[C@@H](c2ccc3c(c2)OCCO3)C(C)C)c2cc[nH]c2n1` the IC50 was > 99.5 µM. For `CC(C)[C@@H](Nc1c(N)cnc2[nH]ccc12)c1ccc2c(c1)S(=O)(=O)CCC2`, the IC50 was > 99.5 µM. `O=C(O)C[C@@H](CNC(=O)c1ncnc2[nH]ccc12)c1ccc(Cl)cc1` was tested, and the IC50 was 65.3 µM and 71.3 µM. `CC(C)[C@H](Nc1ncnc2[nH]cnc12)c1ccc2c(c1)S(=O)(=O)CCC2` was tested, and the IC50 was 0.743 µM. `CC(C)[C@@H](Nc1ncnc2[nH]c(-c3cnc4n3CCC4)cc12)c1ccc2c(c1)S(=O)(=O)CCC2` was tested, and the IC50 was 0.051 µM and 0.043 µM and 0.065 µM and 0.046 µM and 0.052 µM. Work on `CNC(=O)c1cc2c(N[C@H](c3ccc4c(c3)S(=O)(=O)CCC4)C(C)C)ncnc2[nH]1` yielded an IC50 of 1.79 µM. With `CC(C)[C@H](Nc1ncnc2[nH]c(-c3cnn(CC(N)=O)c3)cc12)c1ccc2c(n1)OCCO2` the IC50 was 11.6 µM. `O=C(O)CC(NC(=O)c1ncnc2[nH]ccc12)c1ccc(NC2C[C@H]3CC(CO)C[C@@H]23)cc1` (stereo partly drawn) was tested, and the IC50 was > 99.5 µM. For `COC(=O)c1cc2c(N[C@@H](c3ccc4c(c3)OCCO4)C(C)C)ncnc2[nH]1`, the IC50 was 5.31 µM and 6.5 µM. For `CC(C)[C@@H](Nc1ncnc2[nH]c(C(=O)NC3CN(C)C3)cc12)c1ccc2c(c1)OCCO2`, the IC50 was 1.44 µM and 3.27 µM. `CC(C)[C@H](Nc1ncnc2[nH]ccc12)c1ccc2c(c1)NC(=O)CO2` was tested, and the IC50 was > 99.5 µM. `CC(C)[C@@H](Nc1ncnc2[nH]c(S(C)(=O)=O)cc12)c1ccc2c(c1)S(=O)(=O)CCC2` gave an IC50 of 0.992 µM. Molecule `CCNC(=O)c1cc2c(N[C@H](c3ccc4c(c3)S(=O)(=O)CCC4)C(C)C)ncnc2[nH]1` has an IC50 of 1.28 µM. With `CC(=O)Nc1ccc(S(=O)(=O)NNc2ncnc3sccc23)cc1` the IC50 was > 99.5 µM. `CC(C)[C@H](Nc1ncnc2[nH]c(-c3cnn(C)c3C#N)cc12)c1ccc2c(c1)NC(=O)CO2` gave an IC50 of 0.176 µM. In the case of `CC(C)[C@@H](Nc1ncnc2[nH]c(-c3ccn(C)c(=O)c3)cc12)c1ccc2c(c1)S(=O)(=O)CCC2`, the IC50 is reported as 0.074 µM and 0.063 µM and 0.112 µM. For `Cc1nn(C)cc1-c1cc2c(N[C@@H](c3ccc4c(c3)OCCO4)C(C)C)ncnc2[nH]1`, the IC50 was 0.411 µM and 0.493 µM and 0.469 µM. In the case of `CC(C)[C@@H](Nc1cnc(C(=O)O)cn1)c1ccc2c(c1)OCCO2`, the IC50 is reported as > 99.5 µM. With `O=C(O)c1sccc1C(=O)N1CCC(c2ccn3ncc(C(=O)N4CCCCC4)c3c2)CC1` the IC50 was 38 µM. With `Cn1c(C(=O)O)c(NC(=O)c2ccc(NC(=O)NC3CC3)cc2)c2ccccc21` the IC50 was > 99.5 µM. For `CCn1ncc(-c2cc3c(N[C@@H](c4ccc5c(c4)OCCO5)C(C)C)ncnc3[nH]2)n1`, the IC50 was 1.07 µM and 1.24 µM. `CC(C)[C@@H](Nc1ncnc2[nH]c(-c3cnc4c(c3)nnn4C)cc12)c1ccc2c(c1)S(=O)(=O)CCC2` was tested, and the IC50 was 0.241 µM and 0.131 µM and 0.349 µM. `CC(C)c1n[nH]cc1-c1cc2c(N[C@@H](c3ccc4c(c3)OCCO4)C(C)C)ncnc2[nH]1` was tested, and the IC50 was 2.01 µM and 2.07 µM. With `CC(C)[C@@H](NC(=O)c1cnn(-c2ccccc2)n1)c1ccc2c(c1)OCCO2` the IC50 was > 99.5 µM. `CC(C)[C@H](Nc1ncnc2[nH]c(-c3cnn(C)c3C#N)cc12)c1ccc2c(c1)S(=O)(=O)CCC2` was tested, and the IC50 was 0.018 µM and 0.015 µM and 0.013 µM. In the case of `CC(C)(NC(=O)c1ncnc2[nH]ccc12)c1cc(C(=O)O)[nH]n1`, the IC50 is reported as > 99.5 µM. `CC(C)[C@@H](Nc1ncnc2[nH]c(-c3cn(C)nc3C3CC3)cc12)c1ccc2c(c1)OCCO2` was tested, and the IC50 was 1.19 µM. `CC(C)[C@H](Nc1cc(O)ncn1)c1ccc2c(c1)S(=O)(=O)CCC2` was tested, and the IC50 was > 99.5 µM. With `CC(C)[C@@H](Nc1ncnc2ncccc12)c1ccc2c(c1)OCCO2` the IC50 was > 99.5 µM. In the case of `COC(=O)c1cc2c(N[C@@H](c3ccc4c(c3)CCN4)C(C)C)ncnc2[nH]1`, the IC50 is reported as 28.8 µM and 37.6 µM and 28.4 µM. For `O=C(Nc1ncnc2c(C(=O)Nc3ccccc3C(=O)N3CCCC3)csc12)NC1CC1`, the IC50 was > 99.5 µM. `CC(C)[C@@H](Nc1ncnc2c1ccn2C)c1ccc2c(c1)OCCO2` was tested, and the IC50 was > 99.5 µM. In the case of `CC(C)[C@@H](Nc1ncnc2[nH]c(-c3cnn(C4CCC4)n3)cc12)c1ccc2c(c1)OCCO2`, the IC50 is reported as 3.84 µM and 3.92 µM. For `CC(C)[C@H](Nc1ncnc2c1CCO2)c1ccc2c(c1)S(=O)(=O)CCC2`, the IC50 was > 99.5 µM. With `CC(C)c1c[nH]nc1NC(=O)c1ccc(NC(=O)Nc2ccccc2)cc1` the IC50 was > 99.5 µM. With `CC(C)[C@@H](Nc1ncnc2[nH]c(C(=O)N[C@H]3CCN(C)C3)cc12)c1ccc2c(c1)S(=O)(=O)CCC2` the IC50 was 0.054 µM and 0.107 µM. With `O=C(O)[C@H](CC1CCCCC1)Nc1ncnc2[nH]ccc12` the IC50 was 92.3 µM and 91.8 µM. For `CC(C)[C@@H]1C[C@@H](Nc2ncnc3[nH]ccc23)CCO1`, the IC50 was > 99.5 µM. `O=C(c1cn2ncccc2n1)N1CCC(c2ccn3ncc(C(=O)N4CCCCC4)c3c2)CC1` was tested, and the IC50 was > 99.5 µM. For `CC(C)[C@@H](Nc1ncnc2[nH]ccc12)c1ccc2c(c1)N(C)C(=O)CO2`, the IC50 was 67.7 µM and 67.4 µM. `O=C(O)C[C@@H](NC(=O)c1cccc2[nH]cnc12)c1ccc(Br)cc1` was tested, and the IC50 was 39.2 µM and 40.3 µM. With `CC(C)[C@H](Nc1ncncc1Cl)c1ccc2c(c1)S(=O)(=O)CCC2` the IC50 was > 99.5 µM. With `CC(C)[C@@H](Nc1ncnc2c1CNCC2)c1ccc2c(c1)S(=O)(=O)CCC2` the IC50 was > 99.5 µM. `Cc1cocc1-c1cc2c(N[C@@H](c3ccc4c(c3)OCCO4)C(C)C)ncnc2[nH]1` was tested, and the IC50 was 2.51 µM and 2.58 µM. In the case of `OC[C@@H](Nc1ncnc2[nH]c(I)cc12)c1ccccc1`, the IC50 is reported as > 124 µM. In the case of `Cc1[nH]c2ncnc(NC(=O)c3cncc(Cl)n3)c2c1C`, the IC50 is reported as > 99.5 µM. For `CC(C)[C@H](Nc1ncnc(N)c1F)c1ccc2c(c1)S(=O)(=O)CCC2`, the IC50 was > 99.5 µM. With `N#Cc1ccc(C(=O)Nc2ccc(C(=O)N[C@@H]3c4ccccc4C[C@@H]3C(=O)O)cc2)cc1` the IC50 was > 99.5 µM. For `O=C(c1ccccc1)N1CCC(c2ccn3ncc(C(=O)N4CCCC[C@H](O)C4)c3c2)CC1`, the IC50 was > 99.5 µM. `CCc1[nH]nnc1NC(=O)c1cc2c(N[C@@H](c3ccc4c(c3)OCCO4)C(C)C)ncnc2[nH]1` was tested, and the IC50 was 4.42 µM and 4.28 µM. `CC(C)[C@@H](Nc1ncnc2[nH]c(-c3cccc4c3NC(=O)C4)cc12)c1ccc2c(c1)S(=O)(=O)CCC2` showed an IC50 of 0.36 µM. `CCNC(=O)c1cc2c(N[C@H](c3ccc4c(c3)NS(=O)(=O)CO4)C(C)C)ncnc2[nH]1` was tested, and the IC50 was 0.029 µM and 0.038 µM and 0.037 µM. `CNS(=O)(=O)C[C@@H](NC(=O)c1ncnc2[nH]ccc12)c1ccc(Br)cc1` was tested, and the IC50 was > 99.5 µM. With `CC(C)[C@@H](Nc1ncnc2[nH]c(-c3cccc(CN4CCS(=O)(=O)CC4)c3)cc12)c1ccc2c(c1)OCCO2` the IC50 was 3.25 µM and 3.45 µM and 3.57 µM. In the case of `CC(C)[C@@H](c1ccc2c(c1)OCCO2)N(C)c1ncnc2[nH]c(-c3cnn(CC(N)=O)c3)cc12`, the IC50 is reported as 20.1 µM.
